From patent US6413930B1, “Use of cck-b receptor antagonists for the treatment of sleep disorders” (Glaxo Wellcome Spa, priority 1994, dated 2002)

tested on: old rats; experiment: Effect on sleep patterns (EEG pattern) in old rats; type: in vivo; conditions: single dose, ip
Method: In these animals the EEG patterns are disturbed. Administration of an effective amount of a CCK-B antagonist to such an animal alters the EEG pattern towards the normal. These effects may be observed using standard procedures such as those described by H.Depoortere et al. Physiology & Behaviour 1993, 54, 785-793.
The ability of CCK-B antagonists to effect sleep patterns in old rats was measured by examining the effect of the compound on the EEG pattern using the procedures described by H Depoortere et al. Physiology & Behaviour 1993 54, 785-793.

Structure (SMILES)	Dose that resulted in a significant improvement in total sleep time pattern
O=C(Nc1ccccc1)NC1C(=O)N(CCN2CCOCC2)c2ccccc2N(CC23CC4CC(CC(C4)C2)C3)C1=O (single isomer, unassigned; (-)) [Compound 2, (−) N-[1-(1-Adamantylmethyl)-2,4-dioxo-5-[2-(4-morpholino)ethyl]-2,3,4,5-tetrahydro-1H-benzodiazepin-3-yl]-N′-phenylurea]	0.5 µg/kg
Cc1cccc(NC(=O)NC2N=C(c3ccccc3)c3ccccc3N(C)C2=O)c1 (stereo not drawn) [Compound 3, N-(2,3-dihydro-1-methyl-2-oxo-5-phenyl-1H-1,4-benzodiazepin-3-yl]-N′-3-methylphenyl urea]	5 µg/kg
CC(CNCC(NC(=O)CCC(=O)O)c1ccccc1)(Cc1c[nH]c2ccccc12)NC(=O)OC1C2CC3CC(C2)CC1C3.CNCC(O)C(O)C(O)C(O)CO (stereo not drawn) [Compound 4, (R-(R*, R*))4-((2-((3-(1H-indol-3-yl)-2-methyl-2-((tricyclo(3,3,1,1,3,7)dec-2yloxy)carbonyl)aminopropyl)amino)-1-phenylethyl)amino-4-oxo-butanoic acid meglumine salt]	5 µg/kg
O=C(Nc1cccc(C(=O)O)c1)NC1C(=O)N(CC23CC4CC(CC(C4)C2)C3)c2ccccc2N(c2ccccc2)C1=O (stereo not drawn) [Compound 5, N-1[-(Adamantylmethyl)-2,4,-dioxo-5-phenyl-2,3,4,5-tetrahydro-1H-1,5-benzodiazepin-3-yl]-N′-(3-carboxyphenyl)urea]	15 µg/kg
CN(C)CCN1C(=O)C(NC(=O)Nc2ccccc2)C(=O)N(CC23CC4CC(CC(C4)C2)C3)c2ccccc21 (stereo not drawn) [Compound 6]	0.5 µg/kg

same assay, conditions: single dose, ip and po

Structure (SMILES)	Dose that resulted in a significant improvement in total sleep time pattern
O=C(Nc1ccccc1)NC1C(=O)N(CC23CC4CC(CC(C4)C2)C3)c2ccccc2N(c2ccccc2)C1=O (single isomer, unassigned; (+)) [Compound 1, (+) N-phenyl-N′-[2,3,4,5-tetrahydro-2,4-dioxo-1-(1-adamantylmethyl)-5-phenyl-1H-1,5-benzodiazepin-3-yl]urea]	5 µg/kg
